Broadly, the Kd is the concentration at which binding is half-saturated.

Like-named read-outs stand apart in the source and are kept apart here.

The results in this text go back to publication PMC6207618, “The GbsR Family of Transcriptional Regulators: Functional Characterization of the OpuAR Repressor” (Frontiers in Microbiology, 2018).

One experiment concerns the target OpuAR Y^94F (Bacillus infantis, UniProt U5LJR5, Y94F). Briefly: biochemical. The experiment is classed as binding. From the text: (§1) The coding region of opuAR was amplified from chromosomal DNA of B. infantis NRRL B-14911 ([Massilamany et al., 2016]) using primers opuAR fwd and opuAR rev (Supplementary Table S2) harboring in their 5′-regions recognition sites for the restriction enzyme BsaI. The resulting PCR DNA fragment was then cut with BsaI and cloned into the expression vector pASK-IBA3plus (IBA, Göttingen, Germany) that had been linearized with BsaI; the obtained plasmids were named pMP_AR1 (Supplementary Table S3). Mutant derivatives of the opuAR gene were obtained using the Q5 Site-Directed Mutagenesis Kit (New England BioLabs, Ipswich, MA, United States) and a set of customized mutagenic primers (Supplementary Table S2). The Sanger sequencing method was used to verify the DNA sequence of the chromosomal insert of the parental opuAR^+ overexpression plasmid pMP_AR1 and of its derivatives carrying mutant opuAR genes. DNA sequencing was conducted by Microsynth (Lindau, Germany).
(§2) Overproduction of the OpuAR repressor protein and its mutant derivatives was carried out in the E. coli B strain BL21 harboring plasmid pMP_AR1, a derivative of the expression vector pASK-IBA3plus (IBA, Göttingen, Germany) (Supplementary Table S3). […] De-repression of P-tet promoter activity is achieved by adding the synthetic inducer AHT to the growth medium. Cultures of the E. coli B. strain BL21 (pMP_AR1) were inoculated (to a OD578 of 0.1) from pre-cultures prepared in MMA ([Miller, 1972]) supplemented with 0.5% glucose (wt/vol) as the carbon source, 0.5% casamino acids (wt/vol), 1 mg l^-1 thiamine, and 1 mM MgSO4. The cultures also contained ampicillin (100 μg ml^-1) to select for the presence of plasmid pMP_AR1 (or its mutant derivatives) and they were grown at 37°C. When the main cultures reached an OD578 of 0.5, enhanced expression of the opuAR gene from P-tet was induced by the addition of AHT to a final concentration of 0.2-μg ml^-1. Cells were grown for an additional 2 h, before they were harvested by centrifugation (at 4°C at 4,800 × g for 20 min). The cell pellets were re-suspended in lysis buffer [100 mM Tris-HCl (pH 7.5), 2.5% glycerol, 2 mM dithiothreitol, 0.4 mM EDTA, 0.5 mM phenylmethylsulfonyl fluoride (PMSF), 0.5 mM benzamidine] and the cells were then disrupted by passing them through a French pressure cell as detailed previously ([Nau-Wagner et al., 2012]). Cleared cell lysates were prepared by ultra-centrifugation (at 4°C at 100,000 × g for 35 min) before the OpuAR-Strep-tag II recombinant protein was purified by affinity chromatography ([Nau-Wagner et al., 2012]) on streptactin affinity resin according to the manufacturers specifications (IBA, Göttingen, Germany). Mutant derivatives of the OpuAR protein were overproduced and purified as described above for the wild-type protein.
(§3) The dissociation constants of OpuAR for choline and glycine betaine were determined by intrinsic tryptophan fluorescence spectroscopy as described previously using a Carry Eclips fluorescence spectrometer (Varian, Surry, United Kingdom) ([Pittelkow et al., 2011]; [Nau-Wagner et al., 2012]).

The next experiment has as its target OpuAR R^100F (Bacillus infantis, UniProt U5LJR5, R100F). Description: biochemical. Format: binding.
Description: as §1, §2, §3

A further experiment concerns the target OpuAR N^96F (Bacillus infantis, UniProt U5LJR5, N96F). Description: biochemical. The experiment is classed as binding.
Description: as §1, §2, §3

The target in a further experiment is OpuAR W^93F (Bacillus infantis, UniProt U5LJR5, W93F). Description: biochemical. The experiment is classed as binding.
Description: as §1, §2, §3

The next experiment deals with OpuAR Y^94F/R^100F (Bacillus infantis, UniProt U5LJR5, R100F/Y94F). Briefly: biochemical. The experiment is classed as binding. The note with it: for Improvement of binding (Kd) relative to wild-type OpuAR: OpuAR double variant Y94F/R100F vs wild type.
Description: as §1, §2, §3

The next experiment deals with B. infantis NRRL B-14911. Description: Growth of B. infantis with glycine betaine as sole carbon source. The experiment is classed as cell-based, Bacillus infantis. The note with it: basal medium, 33.24 mM as sole carbon source, 46 h, 37°C. The method, then: Supplementary Figure S7 │B. infantis cannot use glycine betaine as carbon source.
Cultures of B. infantis NRRL B-14911were grown in basal medium supplemented with either glucose (27.7 mM final concentration) or glycine betaine (33.24 mM final concentration) as the sole carbon source. Growth yields were measured after 46 hours of incubation at 37 °C.
Cultures without the addition of a carbon source served as control.
(1 picture or pasted object on this page, not shown here)

Experiment [1] concerns opuAA-treA reporter activity. Description: opuAA-treA reporter fusion TreA enzyme activity assay. The experiment is classed as cell-based, Bacillus subtilis. The following applies: strain STHB10, SMM with 1.2 M NaCl, dose-response 5 to 300 μM.

OpuAR Y^94F/R^100F, sequence (U5LJR5 entry or part of it Y94F/R100F): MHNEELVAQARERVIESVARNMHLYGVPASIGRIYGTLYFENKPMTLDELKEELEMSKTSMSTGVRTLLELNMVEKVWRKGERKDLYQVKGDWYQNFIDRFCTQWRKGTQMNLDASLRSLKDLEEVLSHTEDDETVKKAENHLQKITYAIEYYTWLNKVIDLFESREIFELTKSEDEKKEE
OpuAR R^100F, sequence (U5LJR5 entry or part of it R100F): as the sequence (U5LJR5 entry or part of it Y94F/R100F) above
OpuAR N^96F, sequence (U5LJR5 entry or part of it N96F): as the sequence (U5LJR5 entry or part of it Y94F/R100F) above
OpuAR W^93F, sequence (U5LJR5 entry or part of it W93F): as the sequence (U5LJR5 entry or part of it Y94F/R100F) above
OpuAR Y^94F, sequence (U5LJR5 entry or part of it Y94F): as the sequence (U5LJR5 entry or part of it Y94F/R100F) above

With `C[N+](C)(C)CCO` [choline], the Kd turned out to be 240 ± 33 µM at OpuAR Y^94F; 100 ± 15 µM at OpuAR R^100F; 262 ± 34 µM on OpuAR N^96F; 210 ± 33 µM on OpuAR W^93F; 61 ± 11 µM at OpuAR Y^94F/R^100F. In addition, the “Improvement of binding (Kd) relative to wild-type OpuAR” value at OpuAR Y^94F/R^100F was “about threefold”.
As for `C[N+](C)(C)CC(=O)[O-]` [glycine betaine], in the experiment on B. infantis NRRL B-14911, the “Use as carbon source / nutrient (growth yield)” value is reported as “cannot use”. In experiment [1], the “Concentration in growth medium triggering a noticeable increase in transcriptional activity” value turned out to be 5 µM. Further, the “Concentration sufficient to fully induce expression of the reporter fusion” value in experiment [1] was determined as 75 µM. Further, the Kd on OpuAR Y^94F (OpuAR variant Y94F, read-out: Kd) came out at 293 ± 37 µM; at OpuAR R^100F (OpuAR variant R100F, read-out: Kd), 303 ± 40 µM; on OpuAR N^96F (OpuAR variant N96F, read-out: Kd), 254 ± 39 µM; at OpuAR W^93F (OpuAR variant W93F, read-out: Kd) it was 224 ± 24 µM; at OpuAR Y^94F/R^100F (OpuAR double variant Y94F/R100F, read-out: Kd), 70 ± 12 µM. Also, on OpuAR Y^94F/R^100F, the “Improvement of binding (Kd) relative to wild-type OpuAR” value is “fourfold”.
